Values of other authors in PubChem BioAssay AID1259409 (Chemical Carcinogenesis Research Information System (CCRIS), 2018).

Tested on: rodent chemically induced tumor inhibition, incidence and multiplicity
Assay: CCRIS tumor inhibitor studies

In the case of O=c1oc2c(O)c(O)cc3c(=O)oc4c(O)c(O)cc1c4c23, the “tumour outcome (control, treated, inhibition, significance)” value (Carcinogen: BENZO[A]PYRENE, 50-32-8, Dose [Inhibitor]: 0, 2500 NMOL IN 200 µL ACETONE:METHANOL (45:55) ONCE APPLIED 5 MIN PRIOR TO CARCINOGEN DOSE (STUDY DURATION: 21 WK), Route [Inhibitor]: DERMAL, Species: MOUSE, Strain/Sex: CD-1/FEMALE, Target Tissue: Type of Lesion: SKIN: TUMOR, Dose [Carcinogen]: 50 NMOL IN ACETONE:DMSO (90:10) ONCE, Promoter: 12-O-TETRADECANOYLPHORBOL-13-ACETATE, 16561-29-8) is listed as 55%, 33%, 40%, not significant, the “tumour outcome (control, treated, inhibition, significance)” value (Carcinogen: BENZO[A]PYRENE, 50-32-8, Dose [Inhibitor]: 100 MG/KG ADMINISTERED 1 HR BEFORE AND 6, 24, AND 48 HR AFTER BENZO[A]PYRENE TREATMENT (STUDY DURATION: 6 MO), Route [Inhibitor]: INTRAPERITONEAL, Species: MOUSE, Strain/Sex: STRAIN-A/MALE, Target Tissue: Type of Lesion: LUNG: ADENOMA, Dose [Carcinogen]: 100 MG/KG ONCE, Promoter: NONE USED) is listed as 18/18 (100%), 4/6 (67%), 33%, not significant and the “tumour outcome (control, treated, inhibition, significance)” value (Carcinogen: BENZO[A]PYRENE, 50-32-8, Dose [Inhibitor]: 100 MG/KG ADMINISTERED 1 HR BEFORE AND 6, 24, AND 48 HR AFTER CARCINOGEN TREATMENT FOLLOWED BY 6 MO OBSERVATION PERIOD (, Route [Inhibitor]: INTRAPERITONEAL, Species: MOUSE, Strain/Sex: STRAIN-A/MALE, Target Tissue: Type of Lesion: LUNG: ADENOMA, Dose [Carcinogen]: 100 MG/KG ONCE, Promoter: NONE USED) is listed as 18/18 (100%), 4/6 (67%), 33%, not significant. The “tumour outcome (control, treated, inhibition, significance)” value (Carcinogen: BENZO[A]PYRENE, 50-32-8, Dose [Inhibitor]: 100 MG/KG STARTING 5 D BEFORE AND CONTINUING THROUGH 10 D AFTER CARCINOGEN TREATMENT (STUDY DURATION: 6 MO), Route [Inhibitor]: ORAL, Species: MOUSE, Strain/Sex: STRAIN-A/MALE, Target Tissue: Type of Lesion: LUNG: ADENOMA, Dose [Carcinogen]: 100 MG/KG ONCE, Promoter: NONE USED) was 18/18 (100%), 19/19 (100%), 0%, not significant, the “tumour outcome (control, treated, inhibition, significance)” value (Carcinogen: BENZO[A]PYRENE, 50-32-8, Dose [Inhibitor]: 100 MG/KG/D IN DIET STARTING 5 D BEFORE AND CONTINUING TO 10 D AFTER CARCINOGEN TREATMENT FOLLOWED BY 6 MO OBSERVATION P, Route [Inhibitor]: ORAL, Species: MOUSE, Strain/Sex: STRAIN-A/MALE, Target Tissue: Type of Lesion: LUNG: ADENOMA, Dose [Carcinogen]: 100 MG/KG ONCE, Promoter: NONE USED) was 18/18 (100%), 19/19 (100%), 0%, not significant and the “tumour outcome (control, treated, inhibition, significance)” value (Carcinogen: DIBENZO[A,H]PYRENE, 189-64-0, Dose [Inhibitor]: 0, 300 NMOL (TOTAL DOSE) APPLIED 10 MIN PRIOR TO CARCINOGEN DOSE INJECTED AS 1/7, 2/7, AND 4/7 OF THE TOTAL ON DAYS 1, 8, Route [Inhibitor]: INTRAPERITONEAL, Species: MOUSE, Strain/Sex: ICR/MALE,FEMALE, Target Tissue: Type of Lesion: LUNG: TUMOR, Dose [Carcinogen]: 50 NMOL (TOTAL DOSE) INJECTED IN DOSES OF 1/7, 2/7, AND 4/7 ON DAYS 1, 8, AND 15 OF LIFE, RESPECTIVELY, Promoter: NONE USED) was 95%, 100%, -5%, not significant. The “tumour outcome (control, treated, inhibition, significance)” value (Carcinogen: DIETHYLNITROSAMINE, 55-18-5, Dose [Inhibitor]: 0, 900 MG/KG BW BY INTRAPERITONEAL INJECTION ON DAYS 13, 14 AND 15 OF AGE THEN 6 G/KG DIET FROM 21 TO 161 DAYS OF AGE (S, Route [Inhibitor]: INTRAPERITONEAL, ORAL, Species: MOUSE, Strain/Sex: C3H/MALE, Target Tissue: Type of Lesion: LIVER: ADENOMA, Dose [Carcinogen]: 4 MG/KG IN TRICAPRYLIN ONCE ON DAY 15 OF AGE, Promoter: NONE USED) was 100%, 100%, 0%, not significant, the “tumour outcome (control, treated, inhibition, significance)” value (Carcinogen: DIETHYLNITROSAMINE, 55-18-5, N-METHYLNITROSOUREA, 684-93-5, 1,2-DIMETHYLHYDRAZINE, 540-73-8, N-BUTYL-N-(4-HYDROXYB, Carcinogen: DIETHYLNITROSAMINE, 55-18-5, N-METHYLNITROSOUREA, 684-93-5, 1,2-DIMETHYLHYDRAZINE, 540-73-8, N-BUTYL-N-(4-HYDROXYB, Dose [Inhibitor]: 0, 1% IN DIET FOR 4 WK BEGINNING 1 DAY PRIOR TO CARCINOGEN TREATMENT (STUDY DURATION: 36 WK), Route [Inhibitor]: ORAL, Species: RAT, Strain/Sex: F344/MALE, Target Tissue: Type of Lesion: KIDNEY: ADENOMA, Dose [Carcinogen]: 100 MG/KG DEN ONCE, 20 MG/KG MNU 4 TIMES, 40 MG/KG DMH 4 TIMES, 0.05% BBN IN DRINKING WATER FOR 2 WK, 0.1% DHPN IN D, Dose [Carcinogen]: 100 MG/KG DEN ONCE, 20 MG/KG MNU 4 TIMES, 40 MG/KG DMH 4 TIMES, 0.05% BBN IN DRINKING WATER FOR 2 WK, 0.1% DHPN IN D, Promoter: NONE USED) was 4/14 (29%), 1/12 (8%), 72%, not significant and the “tumour outcome (control, treated, inhibition, significance)” value (Carcinogen: DIETHYLNITROSAMINE, 55-18-5, N-METHYLNITROSOUREA, 684-93-5, 1,2-DIMETHYLHYDRAZINE, 540-73-8, N-BUTYL-N-(4-HYDROXYB, Carcinogen: DIETHYLNITROSAMINE, 55-18-5, N-METHYLNITROSOUREA, 684-93-5, 1,2-DIMETHYLHYDRAZINE, 540-73-8, N-BUTYL-N-(4-HYDROXYB, Dose [Inhibitor]: 0, 1% IN DIET FOR 4 WK BEGINNING 1 DAY PRIOR TO CARCINOGEN TREATMENT (STUDY DURATION: 36 WK), Route [Inhibitor]: ORAL, Species: RAT, Strain/Sex: F344/MALE, Target Tissue: Type of Lesion: KIDNEY: NEPHROBLASTOMA, Dose [Carcinogen]: 100 MG/KG DEN ONCE, 20 MG/KG MNU 4 TIMES, 40 MG/KG DMH 4 TIMES, 0.05% BBN IN DRINKING WATER FOR 2 WK, 0.1% DHPN IN D, Dose [Carcinogen]: 100 MG/KG DEN ONCE, 20 MG/KG MNU 4 TIMES, 40 MG/KG DMH 4 TIMES, 0.05% BBN IN DRINKING WATER FOR 2 WK, 0.1% DHPN IN D, Promoter: NONE USED) was 7/14 (50%), 5/12 (42%), 16%, not significant. The “tumour outcome (control, treated, inhibition, significance)” value (Carcinogen: DIETHYLNITROSAMINE, 55-18-5, N-METHYLNITROSOUREA, 684-93-5, 1,2-DIMETHYLHYDRAZINE, 540-73-8, N-BUTYL-N-(4-HYDROXYB, Carcinogen: DIETHYLNITROSAMINE, 55-18-5, N-METHYLNITROSOUREA, 684-93-5, 1,2-DIMETHYLHYDRAZINE, 540-73-8, N-BUTYL-N-(4-HYDROXYB, Dose [Inhibitor]: 0, 1% IN DIET FOR 4 WK BEGINNING 1 DAY PRIOR TO CARCINOGEN TREATMENT (STUDY DURATION: 36 WK), Route [Inhibitor]: ORAL, Species: RAT, Strain/Sex: F344/MALE, Target Tissue: Type of Lesion: LARGE INTESTINE: ADENOMA, Dose [Carcinogen]: 100 MG/KG DEN ONCE, 20 MG/KG MNU 4 TIMES, 40 MG/KG DMH 4 TIMES, 0.05% BBN IN DRINKING WATER FOR 2 WK, 0.1% DHPN IN D, Dose [Carcinogen]: 100 MG/KG DEN ONCE, 20 MG/KG MNU 4 TIMES, 40 MG/KG DMH 4 TIMES, 0.05% BBN IN DRINKING WATER FOR 2 WK, 0.1% DHPN IN D, Promoter: NONE USED) was 7/14 (50%), 5/12 (42%), 16%, not significant, the “tumour outcome (control, treated, inhibition, significance)” value (Carcinogen: DIETHYLNITROSAMINE, 55-18-5, N-METHYLNITROSOUREA, 684-93-5, 1,2-DIMETHYLHYDRAZINE, 540-73-8, N-BUTYL-N-(4-HYDROXYB, Carcinogen: DIETHYLNITROSAMINE, 55-18-5, N-METHYLNITROSOUREA, 684-93-5, 1,2-DIMETHYLHYDRAZINE, 540-73-8, N-BUTYL-N-(4-HYDROXYB, Dose [Inhibitor]: 0, 1% IN DIET FOR 4 WK BEGINNING 1 DAY PRIOR TO CARCINOGEN TREATMENT (STUDY DURATION: 36 WK), Route [Inhibitor]: ORAL, Species: RAT, Strain/Sex: F344/MALE, Target Tissue: Type of Lesion: LARGE INTESTINE: CARCINOMA, Dose [Carcinogen]: 100 MG/KG DEN ONCE, 20 MG/KG MNU 4 TIMES, 40 MG/KG DMH 4 TIMES, 0.05% BBN IN DRINKING WATER FOR 2 WK, 0.1% DHPN IN D, Dose [Carcinogen]: 100 MG/KG DEN ONCE, 20 MG/KG MNU 4 TIMES, 40 MG/KG DMH 4 TIMES, 0.05% BBN IN DRINKING WATER FOR 2 WK, 0.1% DHPN IN D, Promoter: NONE USED) was 3/14 (21%), 4/12 (33%), -57%, not significant and the “tumour outcome (control, treated, inhibition, significance)” value (Carcinogen: DIETHYLNITROSAMINE, 55-18-5, N-METHYLNITROSOUREA, 684-93-5, 1,2-DIMETHYLHYDRAZINE, 540-73-8, N-BUTYL-N-(4-HYDROXYB, Carcinogen: DIETHYLNITROSAMINE, 55-18-5, N-METHYLNITROSOUREA, 684-93-5, 1,2-DIMETHYLHYDRAZINE, 540-73-8, N-BUTYL-N-(4-HYDROXYB, Dose [Inhibitor]: 0, 1% IN DIET FOR 4 WK BEGINNING 1 DAY PRIOR TO CARCINOGEN TREATMENT (STUDY DURATION: 36 WK), Route [Inhibitor]: ORAL, Species: RAT, Strain/Sex: F344/MALE, Target Tissue: Type of Lesion: SMALL INTESTINE: ADENOMA, Dose [Carcinogen]: 100 MG/KG DEN ONCE, 20 MG/KG MNU 4 TIMES, 40 MG/KG DMH 4 TIMES, 0.05% BBN IN DRINKING WATER FOR 2 WK, 0.1% DHPN IN D, Dose [Carcinogen]: 100 MG/KG DEN ONCE, 20 MG/KG MNU 4 TIMES, 40 MG/KG DMH 4 TIMES, 0.05% BBN IN DRINKING WATER FOR 2 WK, 0.1% DHPN IN D, Promoter: NONE USED) was 6/14 (43%), 1/12 (8%), 81%, not calculated.
